According to patent publication US6512000B1, “Aminocarbonyl-substituted benzimidazoles having tryptase-inhibitory activity” (Boehringer Ingelheim Pharma KG, priority 1999, dated 2003):

Target: T1, rh beta tryptase (Homo sapiens, UniProt P20231)
T1 construct: purchased Promega
Test: Tryptase inhibition test (cleavage of N-p-tosyl-Gly-Pro-Lys-para-nitroaniline, p-nitroaniline measured at 405 nm)
Format: biochemical
Details: pH 7.4, 37° C.; for IC50: concentration at which 50% of the tryptase enzyme activity is inhibited, substrate 0.6 mM
Outline: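 Recombinant human beta tryptase (0.91 U/ml) in 100 mM Tris HCl pH 7.4 with 5 mM calcium and 100 mg/ml heparin; compounds pre-incubated 5 min, then 0.6 mM tosyl-Gly-Pro-Lys-pNA added, 5 min at 37 °C. p-Nitroaniline read at 405 nm; % inhibition at 10 μM, IC50 determined when inhibition exceeded 70%.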

[1] = inhibition of rh beta tryptase at 10 μM test substance, substrate N-p-tosyl-Gly-Pro-Lys-para-nitroaniline 0.6 mM, 5 minutes

T1 sequence (P20231 31-275): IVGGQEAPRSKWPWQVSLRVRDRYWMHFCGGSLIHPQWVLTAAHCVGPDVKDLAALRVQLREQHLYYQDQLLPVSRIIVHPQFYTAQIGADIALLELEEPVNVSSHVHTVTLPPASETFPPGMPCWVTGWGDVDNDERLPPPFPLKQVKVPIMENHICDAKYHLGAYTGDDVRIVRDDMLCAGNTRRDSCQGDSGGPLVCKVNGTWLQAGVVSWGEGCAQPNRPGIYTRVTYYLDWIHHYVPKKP

Row | Compound | IC50 [µM] | inhibition at 10 µM [1] [%] | % Inhibition (10 μM) [1] [%]
1 | Cn1c(CCc2ccc(C(=N)N)cc2)nc2cc(C(=O)N3CCN(Cc4ccccc4)CC3)ccc21 [Example 55, 2-[2-(4-Amidinophenyl)-ethyl]-1-methyl-benzimidazol-5-yl-carboxylic Acid-[N′-benzyl-piperazide]] | 0.346 |  | 
2 | CCOCCCn1c(CCc2ccc(C(=N)N)cc2)nc2cc(C(=O)N(Cc3ccc(CN)cc3)Cc3cccc(OC)c3)ccc21 [Example 70, 2-[2-(4-amidinophenyl)ethyl]-1-(3-ethoxy-propyl)-benzimidazol-5-yl-carboxylic acid-N-[4-(amino-methyl)-benzyl]-N-(3-methoxybenzyl)-amide] | 0.422 | 63 | 
3 | CCCCN(CCCC)CCCn1c(CCc2ccc(C(=N)N)cc2)nc2cc(C(=O)N(Cc3ccc(CN)cc3)Cc3cccc(OC)c3)ccc21 [Example 71, 2-[2-(4-amidinophenyl)ethyl]-1-(3-di-n-butylaminopropyl)-benzimidazol-5-yl-carboxylic acid-N-[4-(amino-methyl)-benzyl]-N-(3-methoxybenzyl)-amide] |  | 58 | 
4 | COc1cccc(CN(Cc2ccc(CN)cc2)C(=O)c2ccc3c(c2)nc(CCc2ccc(C(=N)N)cc2)n3CCCNC(=O)Cc2ccccc2)c1 [Example 72, 2-[2-(4-amidinophenyl)ethyl]-1-[3-(benzylcarbonylamino)-propyl]-benzimidazol-5-yl-carboxylic acid-N-[4-(amino-methyl)-benzyl]-N-(3-methoxybenzyl)-amide] |  | 69 | 
5 | COc1cccc(CN(Cc2ccc(CN)cc2)C(=O)c2ccc3c(c2)nc(CCc2ccc(C(=N)N)cc2)n3CC2CC2)c1 [Example 74, 2-[2-(4-amidinophenyl)ethyl]-1-cyclopropylmethyl-benzimidazol-5-yl-carboxylic acid-N-[4-(amino-methyl)-benzyl]-N-(3-methoxybenzyl)-amide] |  | 66 | 
6 | COc1cccc(CN(Cc2ccc(CN)cc2)C(=O)c2ccc3c(c2)nc(CCc2ccc(C(=N)N)cc2)n3CCc2ccccc2)c1 [Example 75, 2-[2-(4-amidinophenyl)ethyl]-1-(2-phenyl-ethyl)-benzimidazol-5-yl-carboxylic acid-N-[4-(amino-methyl)-benzyl]-N-(3-methoxybenzyl)-amide] |  | 60 | 
7 | COc1cccc(CN(Cc2ccc(CN)cc2)C(=O)c2ccc3c(c2)nc(CCc2ccc(C(=N)N)cc2)n3CCc2ccc(Cl)cc2)c1 [Example 76, 2-[2-(4-amidinophenyl)ethyl]-1-[2-(4-chlorophenyl)ethyl]-benzimidazol-5-yl-carboxylic acid-N-[4-(amino-methyl)-benzyl]-N-(3-methoxybenzyl)-amide] |  | 58 | 
8 | COc1cccc(CN(Cc2ccc(CN)cc2)C(=O)c2ccc3c(c2)nc(CCc2ccc(C(=N)N)cc2)n3CCCN2CCN(c3ccccc3C)CC2)c1 [Example 80, 2-[2-(4-amidinophenyl)ethyl]-1-{3-[4-(2-methylphenyl)-piperazin-1-yl]-propyl}-benzimidazol-5-yl-carboxylic acid-N-[4-(amino-methyl)-benzyl]-N-(3-methoxybenzyl)-amide] |  | 53 | 
9 | COc1cccc(CN(Cc2ccc(CN)cc2)C(=O)c2ccc3c(c2)nc(CCc2ccc(C(=N)N)cc2)n3CCCN2CCOCC2)c1 [Example 81, 2-[2-(4-amidinophenyl)ethyl]-1-[3-(morpholin-4-yl)-propyl]-benzimidazol-5-yl-carboxylic acid-N-[4-(amino-methyl)-benzyl]-N-(3-methoxybenzyl)-amide] |  | 69 | 
10 | COc1cccc(CN(Cc2ccc(CN)cc2)C(=O)c2ccc3c(c2)nc(CCc2ccc(C(=N)N)cc2)n3CC2CCCO2)c1 (stereo not drawn) [Example 82, 2-[2-(4-amidinophenyl)ethyl]-1-(tetrahydrofuran-2-yl-methyl)-benzimidazol-5-yl-carboxylic acid-N-[4-(amino-methyl)-benzyl]-N-(3-methoxybenzyl)-amide] |  | 61 | 
11 | CCCCN(Cc1ccc(CN)cc1)C(=O)c1ccc2c(c1)nc(CCc1ccc(C(=N)N)cc1)n2CCCOCC [Example 86, 2-[2-(4-amidinophenyl)ethyl]-1-(3-ethoxypropyl)-benzimidazol-5-yl-carboxylic acid-N-[4-(amino-methyl)-benzyl]-N-n-butyl-amide] | 0.135 | 72 | 
12 | CCCCN(CCCC)CCCn1c(CCc2ccc(C(=N)N)cc2)nc2cc(C(=O)N(CCCC)Cc3ccc(CN)cc3)ccc21 [Example 87, 2-[2-(4-amidinophenyl)ethyl]-1-(3-di-n-butylaminopropyl)-benzimidazol-5-yl-carboxylic acid-N-[4-(amino-methyl)-benzyl]-N-n-butyl-amide] |  | 59 | 
13 | CCCCN(Cc1ccc(CN)cc1)C(=O)c1ccc2c(c1)nc(CCc1ccc(C(=N)N)cc1)n2CCCNC(=O)Cc1ccccc1 [Example 88] |  |  | 70
14 | CCCCN(Cc1ccc(CN)cc1)C(=O)c1ccc2c(c1)nc(CCc1ccc(C(=N)N)cc1)n2CC1CC1 [Example 90, 2-[2-(4-amidinophenyl)ethyl]-1-cyclopropylmethyl-benzimidazol-5-yl-carboxylic acid-N-[4-(amino-methyl)-benzyl]-N-n-butyl-amide] |  | 67 | 

More lines, now with the values ahead:

Row | IC50 [µM] | inhibition at 10 µM [1] [%] | % Inhibition (10 μM) [1] [%] | Compound
15 |  | 62 |  | CCCCN(Cc1ccc(CN)cc1)C(=O)c1ccc2c(c1)nc(CCc1ccc(C(=N)N)cc1)n2CCc1ccccc1 [Example 91, 2-[2-(4-amidinophenyl)ethyl]-1-(2-phenylethyl)-benzimidazol-5-yl-carboxylic acid-N-[4-(amino-methyl)-benzyl]-N-n-butyl-amide]
16 |  | 56 |  | CCCCN(Cc1ccc(CN)cc1)C(=O)c1ccc2c(c1)nc(CCc1ccc(C(=N)N)cc1)n2Cc1ccc(C)cc1 [Example 93, 2-[2-(4-amidinophenyl)ethyl]-1-(4-methylbenzyl)-benzimidazol-5-yl-carboxylic acid-N-[4-(amino-methyl)-benzyl]-N-n-butyl-amide]
17 |  | 55 |  | CCCCN(Cc1ccc(CN)cc1)C(=O)c1ccc2c(c1)nc(CCc1ccc(C(=N)N)cc1)n2CCCN1CCN(c2ccccc2C)CC1 [Example 96, 2-[2-(4-amidinophenyl)ethyl]-1-{3-[4-(2-methylphenyl)-piperazin-1-yl]-propyl}-benzimidazol-5-yl-carboxylic acid-N-[4-(amino-methyl)-benzyl]-N-n-butyl-amide]
18 |  | 56 |  | CCCCN(Cc1ccc(CN)cc1)C(=O)c1ccc2c(c1)nc(CCc1ccc(C(=N)N)cc1)n2CCCN1CCOCC1 [Example 97, 2-[2-(4-amidinophenyl)ethyl]-1-[3-(morpholin-4-yl)-propyl]-benzimidazol-5-yl-carboxylic acid-N-[4-(amino-methyl)-benzyl]-N-n-butyl-amide]
19 |  | 67 |  | CCCCN(Cc1ccc(CN)cc1)C(=O)c1ccc2c(c1)nc(CCc1ccc(C(=N)N)cc1)n2CC1CCCO1 (stereo not drawn) [Example 98, 2-[2-(4-amidinophenyl)ethyl]-1-(tetrahydrofuran-2-yl-methyl)-benzimidazol-5-yl-carboxylic acid-N-[4-(amino-methyl)-benzyl]-N-n-butyl-amide]
20 |  | 58 |  | CCCCN(Cc1ccc(CN)cc1)C(=O)c1ccc2c(c1)nc(CCc1ccc(C(=N)N)cc1)n2Cc1cccs1 [Example 99, 2-[2-(4-amidinophenyl)ethyl]-1-(2-thiophenyl-methyl)-benzimidazol-5-yl-carboxylic acid-N-[4-(amino-methyl)-benzyl]-N-n-butyl-amide]
21 |  | 67 |  | CCCCN(Cc1ccc(CN)cc1)C(=O)c1ccc2c(c1)nc(CCc1ccc(C(=N)N)cc1)n2Cc1ccc2c(c1)OCO2 [Example 100, 2-[2-(4-amidinophenyl)ethyl]-1-(1,3-benzodioxol-5-yl-methyl)-benzimidazol-5-yl-carboxylic acid-N-[4-(amino-methyl)-benzyl]-N-n-butyl-amide]
22 | 0.369 |  |  | CCOCCCn1c(CCc2ccc(C(=N)N)cc2)nc2cc(C(=O)N(Cc3ccccc3)Cc3ccc(CN)cc3)ccc21 [Example 102, 2-[2-(4-amidinophenyl)ethyl]-1-(3-ethoxypropyl)-benzimidazol-5-yl-carboxylic acid-N-[4-(amino-methyl)-benzyl]-N-benzyl-amide]
23 |  | 60 |  | CCCCN(CCCC)CCCn1c(CCc2ccc(C(=N)N)cc2)nc2cc(C(=O)N(Cc3ccccc3)Cc3ccc(CN)cc3)ccc21 [Example 103, 2-[2-(4-amidinophenyl)ethyl]-1-(3-di-n-butylaminopropyl)-benzimidazol-5-yl-carboxylic acid-N-[4-(amino-methyl)-benzyl]-N-benzyl-amide]
24 |  | 74 |  | N=C(N)c1ccc(CCc2nc3cc(C(=O)N(Cc4ccccc4)Cc4ccc(CN)cc4)ccc3n2CCCNC(=O)Cc2ccccc2)cc1 [Example 104, 2-[2-(4-amidinophenyl)ethyl]-1-[3-(benzylcarbonylamino)-propyl]-benzimidazol-5-yl-carboxylic acid-N-[4-(amino-methyl)-benzyl]-N-benzyl-amide]
25 |  | 58 |  | N=C(N)c1ccc(CCc2nc3cc(C(=O)N(Cc4ccccc4)Cc4ccc(CN)cc4)ccc3n2CC2CC2)cc1 [Example 106, 2-[2-(4-amidinophenyl)ethyl]-1-cyclopropylmethyl-benzimidazol-5-yl-carboxylic acid-N-[4-(amino-methyl)-benzyl]-N-benzyl-amide]
26 | 0.344 | 65 |  | N=C(N)c1ccc(CCc2nc3cc(C(=O)N(Cc4ccccc4)Cc4ccc(CN)cc4)ccc3n2CCc2ccccc2)cc1 [Example 107, 2-[2-(4-amidinophenyl)ethyl]-1-(2-phenylethyl)-benzimidazol-5-yl-carboxylic acid-N-[4-(amino-methyl)-benzyl]-N-benzyl-amide]
27 |  | 56 |  | N=C(N)c1ccc(CCc2nc3cc(C(=O)N(Cc4ccccc4)Cc4ccc(CN)cc4)ccc3n2CCCN2CCOCC2)cc1 [Example 113, 2-[2-(4-amidinophenyl)ethyl]-1-[3-(morpholin-4-yl)-propyl]-benzimidazol-5-yl-carboxylic acid-N-[4-(amino-methyl)-benzyl]-N-benzyl-amide]
